Source: patent US7893085B2, “Aza-benzothiophenyl compounds and methods of use” (Genentech, Inc, priority 2006, dated 2011)

Key:
[1] = tested on: cellular p-ERK in HCT116 or A375 cells; assay: Phospho-ERK cell-based assay (ELISA); conditions: Homo sapiens; in either one of the cell lines (HCT116, A375); 2 h or 24 h
Description: Compounds are tested in a cell-based phospho-ERK ELISA using the following cell lines:
HCT116 human colorectal carcinoma (ATCC)
(§1) A375 human malignant melanoma (ATCC)
Both cell lines are maintained in DMEM/F12 (1:1) media (Gibco) supplemented with 10% FCS at 37° C. in a 5% CO2 humidified incubator.
Cells are seeded in 96-well plates at 2,000 cells/well and after 24 h they are exposed to different concentrations of compounds in 0.83% DMSO. Cells are grown for a further 2 h or 24 h, fixed with formaldehyde (2% final) and permeabilised with methanol. Following blocking with TBST-3% BSA, fixed cells are incubated with primary antibody (anti-phospho ERK from rabbit) over-night at 4° C. Cells are incubated with Propidium Iodide (DNA fluorescent dye) and detection of cellular p-ERK is performed using an anti-rabbit secondary antibody conjugated to the fluorescent Alexa Fluor 488 dye (Molecular probes). The fluorescence is analysed using the Acumen Explorer (lTP Labtech), a laser-scanning microplate cytometer, and the Alexa Fluor 488 signal is normalised to the PI signal (proportional to cell number).
The EC50 is defined as the concentration at which a given compound achieves a signal half way between the baseline and the maximum response. EC50 values are calculated using the XLfit software package (version 2.0.5).

[2] = tested on: HCT116 human colorectal carcinoma or A375 human malignant melanoma cells; assay: Cell proliferation assay (CellTiter-Glo); type: cell-based; conditions: in either one of the cell lines (HCT116, A375), 72 h
Description: Compounds are tested in a cell proliferation assay using the following cell lines:
HCT116 human colbrectal carcinoma (ATCC)
as §1
Both cell lines are maintained in DMEMIF12 (1:1) media (Gibco) supplemented with 10% FCS at 37° C. in a 5% CO2 humidified incubator.
Cells are seeded in 96-well plates at 2,000 cells/well and after 24 hours they are exposed to different concentrations of compounds in 0.83% DMSO. Cells are grown for a further 72 h, and an equal volume of CellTiter-Glo reagent (Promega) is added to each well. This lyses the cells and generates a luminescent signal proportional to the amount of ATP released (and therefore proportional to the number of cells in the well) that can be detected using a multiwell luminometer.
The EC50 is defined as the concentration at which a given compound achieves 50% inhibition of control. EC50 values are calculated using the XLfit software package (version 2.0.5).

EC50 [1]	Compound	EC50 [2]
< 10 µM	O=C(NOCCO)c1sc2ccncc2c1Nc1ccc(I)cc1F [Example 10, 3-(2-Fluoro-4-iodo-phenylamino)-thieno[3,2-c]pyridine-2-carboxylic acid (2-hydroxyethoxy)-amide]	< 10 µM
< 10 µM	O=C(NOCCO)c1sc2c(F)cncc2c1Nc1ccc(I)cc1F [Example 11, 7-Fluoro-3-(2-fluoro-4-iodo-phenylamino)-thieno[3,2-c]pyridine-2-carboxylic acid (2-hydroxy-ethoxy)-amide]	–
< 10 µM	CSc1ccc(Nc2c(C(=O)NOCCO)sc3ccncc23)c(F)c1 [Example 12, 3-(2-Fluoro-4-methylsulfanyl-phenylamino)-thieno[3,2-c]pyridine-2-carboxylic acid (2-hydroxy-ethoxy)-amide]	–

Compound	EC50 [1]	EC50 [2]
O=C(NOC[C@H](O)CO)c1sc2ccncc2c1Nc1ccc(I)cc1F [Example 5, 3-(2-Fluoro-4-iodo-phenylamino)-thieno[3,2-c]pyridine-2-carboxylic acid ((R)-2,3-dihydroxy-propoxy)-amide]	< 10 µM	< 10 µM
